Where no end group is shown, it is not given here.
Assays:
trypsin [1] = target: T1, trypsin (Sus scrofa, UniProt P00761); assay: Trypsin inhibitory assay; assay type: biochemical; conditions: up to the concentration of 100 μg/mL
chymotrypsin [2] = target: T2, chymotrypsin (Bos taurus, UniProt P00766); assay: Chymotrypsin inhibitory assay; assay type: biochemical; conditions: up to the concentration of 100 μg/mL
mice = assay: Toxicity and behavior in mice; assay type: in vivo; conditions: i.p. 40 μg/g
thermolysin = target: T3, thermolysin (Bacillus thermoproteolyticus, UniProt P00800); assay: Proteolytic and thermal stability against thermolysin; assay type: in vitro ADME; conditions: thermolysin from Bacillus thermoproteolyticus Rokko; 65 °C, up to 12 h
T3 sequence (P00800 233-548): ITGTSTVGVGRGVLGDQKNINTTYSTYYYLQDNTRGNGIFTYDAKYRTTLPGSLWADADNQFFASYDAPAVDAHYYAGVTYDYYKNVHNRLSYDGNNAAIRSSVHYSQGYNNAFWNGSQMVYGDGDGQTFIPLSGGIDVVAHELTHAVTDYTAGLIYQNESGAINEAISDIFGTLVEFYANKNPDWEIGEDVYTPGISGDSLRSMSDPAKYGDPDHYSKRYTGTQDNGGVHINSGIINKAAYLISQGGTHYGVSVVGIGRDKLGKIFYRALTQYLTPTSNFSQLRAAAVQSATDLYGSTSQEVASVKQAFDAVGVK

proteinase K = proteinase K (Parengyodontium album, UniProt P06873); assay: Proteolytic and thermal stability against proteinase K; assay type: in vitro ADME; conditions: proteinase K from Tritirachium album; 50 °C, up to 48 h
Chain of proteinase K (P06873 106-384): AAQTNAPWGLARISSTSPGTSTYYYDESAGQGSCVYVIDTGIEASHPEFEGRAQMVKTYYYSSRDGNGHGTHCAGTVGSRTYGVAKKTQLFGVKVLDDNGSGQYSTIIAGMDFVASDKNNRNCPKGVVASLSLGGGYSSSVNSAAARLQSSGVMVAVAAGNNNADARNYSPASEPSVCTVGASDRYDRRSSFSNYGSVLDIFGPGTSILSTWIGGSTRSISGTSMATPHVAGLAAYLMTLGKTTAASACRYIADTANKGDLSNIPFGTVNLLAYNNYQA

chicks = assay: Toxicity and behavior in chicks; assay type: in vivo; conditions: i.c.v. 60 μg/g
[3] = Solubility in water or low pH buffers; conditions: pure water or low pH buffers
[4] = tested on: murine cerebrocortical neuron cells; assay: Veratridine-induced neuronal Ca2+ influx; assay type: cell-based; conditions: data not shown
pepsin = pepsin (Sus scrofa, UniProt P00791); conditions: cited from earlier work
Chain of pepsin (P00791 60-385): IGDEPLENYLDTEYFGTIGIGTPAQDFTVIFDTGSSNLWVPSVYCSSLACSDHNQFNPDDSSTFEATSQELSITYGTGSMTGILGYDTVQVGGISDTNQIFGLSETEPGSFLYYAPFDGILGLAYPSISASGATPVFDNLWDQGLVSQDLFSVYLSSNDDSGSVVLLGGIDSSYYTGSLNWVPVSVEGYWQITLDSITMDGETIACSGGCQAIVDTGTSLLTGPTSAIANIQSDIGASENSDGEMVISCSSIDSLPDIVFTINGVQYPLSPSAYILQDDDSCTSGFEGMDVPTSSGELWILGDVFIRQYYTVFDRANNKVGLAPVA

trypsin [5] = target: T1, trypsin; conditions: cited from earlier work
chymotrypsin [6] = target: T2, chymotrypsin; conditions: cited from earlier work

T1 sequence (P00761 9-231): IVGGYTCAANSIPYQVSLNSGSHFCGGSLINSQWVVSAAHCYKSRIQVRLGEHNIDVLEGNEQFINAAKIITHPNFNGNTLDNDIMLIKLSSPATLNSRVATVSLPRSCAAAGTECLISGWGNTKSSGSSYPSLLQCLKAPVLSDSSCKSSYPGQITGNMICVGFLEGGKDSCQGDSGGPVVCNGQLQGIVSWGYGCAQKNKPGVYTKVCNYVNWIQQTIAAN

Row | Substance | effect in trypsin inhibitory assay (trypsin [1]) | effect in chymotrypsin inhibitory assay (chymotrypsin [2]) | toxic effects or behavior changes in mice (mice) | proteolytic and thermal stability against thermolysin (thermolysin) | proteolytic and thermal stability against proteinase K (proteinase K) | toxic effects or behavior changes in chicks (chicks) | solubility [3] | effect on neuronal Ca2+ influx [4] | stability towards pepsin (pepsin) | stability towards trypsin (trypsin [5]) | stability towards chymotrypsin (chymotrypsin [6]) | stability to trypsin (trypsin [5])
1 | asteropsin A [ASPA] | no effects | no effects | no toxic effects or behavior changes | exceptional proteolytic and thermal stability | exceptional proteolytic and thermal stability | no toxic effects or behavior changes |  |  |  |  |  | 
2 | asteropsin C [ASPC] | no effects | no effects | no toxic effects or behavior changes |  | exceptional proteolytic and thermal stability | no toxic effects or behavior changes | virtually insoluble | no effect |  |  |  | 
3 | kalata B1 (GLPVCGETCVGGTCNTPGCTCSWPVCTRN; not fully specified; ends and bridges not checked; UniProt P56254 89-117, looked up) |  |  |  |  |  |  |  |  | exhibits stability | exhibits stability | exhibits stability | 
4 | ω-conotoxin MVIIA [ziconotide] |  |  |  |  |  |  |  |  |  |  |  | unstable

From paper PMC4139099 (Biochimica et biophysica acta, 2013)
